Experimental data reported in PMC7932555, “A diffusible signal factor of the intestine dictates Salmonella invasion through its direct control of the virulence activator HilD” (PLoS Pathogens, 2021).
Where a chain is given by its changes, count along the chain named. pKd: −log10 of the molar value.

Key:
wild type HilD = molecular target: T1, wild type HilD (Salmonella typhimurium, UniProt P0CL08); assay: ELISA binding of fatty acid to wild type HilD; conditions: plates pre-adsorbed with 10 μM fatty acid, non-linear regression
T1 construct: made in house; host or cells: E. coli BL21 (DE3)
T1 sequence (P0CL08 1-309): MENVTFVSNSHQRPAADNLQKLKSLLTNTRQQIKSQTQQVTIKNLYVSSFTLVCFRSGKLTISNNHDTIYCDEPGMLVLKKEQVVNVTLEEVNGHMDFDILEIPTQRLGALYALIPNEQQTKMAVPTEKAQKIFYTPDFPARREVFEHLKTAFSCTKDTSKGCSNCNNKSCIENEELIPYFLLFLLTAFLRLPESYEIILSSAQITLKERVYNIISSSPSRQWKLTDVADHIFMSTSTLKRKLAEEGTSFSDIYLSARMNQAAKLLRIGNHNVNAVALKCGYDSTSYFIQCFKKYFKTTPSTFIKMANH
Procedure: hilD or its mutated sequences were amplified and cloned into pET15b(+) under an N-terminal 6xHis tag. The constructs were transformed into E. coli BL21 (DE3) for expression. Transformants were induced with 5 mM IPTG for 4 hours. Cultures were centrifuged, lysed and treated with TALON beads as described above. Bound protein was eluted by applying 1 ml elution buffer to the columns. Elution was confirmed by SDS-PAGE. Following confirmation, eluted samples were dialyzed overnight in dialysis buffer (50 mM sodium phosphate, 300 mM NaCl, 10% glycerol). Protein concentration and quality were assessed by Bradford estimation and SDS-PAGE.
96-well polystyrene plates were coated with 10 μM fatty acid in coating buffer (0.05 M sodium carbonate-bicarbonate, pH 9.3) and incubated overnight at 4°C. Wells were washed three times with PBS, followed by addition of blocking buffer (1% Ficoll 400 in PBS). After blocking, wells were washed three times with PBS, and different concentrations of proteins in blocking buffer were added and incubated at room temperature for 2 hours. […] After color development, reaction was stopped with 1N sulfuric acid and read spectrophotometrically at 490 nm. Binding was analyzed in GraphPad Prism.
All experiments were repeated twice and data of representative experiment have been shown. Kd was calculated by using Total One-Site binding in GraphPad Prism. […]

[1] = tested on: Salmonella invasion of HEp-2 cells; assay: Invasion of HEp-2 cells by gentamicin protection assay; assay type: cell-based
Procedure: Invasion was quantified by gentamicin protection assay. HEp-2 cells were seeded into 24-well cell culture plates (~10^5/well) and allowed to attach overnight at 37° C with 5% CO2). Salmonella strains were grown overnight without aeration in LB buffered with 100 mM HEPES, pH 8.0, with antibiotics and fatty acids or control solvent. Overnight cultures were washed with sterile PBS. Bacteria were added to the HEp-2 cell monolayer (MOI 1:10), centrifuged briefly (10 minutes at 200 x g) and incubated for 1 hour at 37°C. Wells were washed three times with sterile PBS followed by addition of media with 200 μg/mL gentamicin and incubated for 1 hour. Cells were then washed three times with sterile PBS and lysed by 0.1% Triton X-100. Intracellular bacteria were enumerated by spreading lysates onto LB agar plates with appropriate selection.

HilD [2] = molecular target: T2, HilD (Salmonella typhimurium, UniProt P0CL08, N44A); assay: HilD half-life (degradation) assay by western blot; assay type: cell-based; conditions: HilD N44A-3XFLAG; 20 μM fatty acid
T2 construct: hilD with a C-terminal 3XFLAG tag was cloned into pWSK29 under control of the tetRA promoter; expressed in transfected cells; host or cells: Salmonella Typhimurium strain carrying pWSK29-PtetRA-hilD-3XFLAG (background with chromosomal hilD, hilC and rtsA null)
T2 sequence (P0CL08 1-309 N44A): T1 sequence (P0CL08 1-309) with N44A
Procedure: (§1) The HilD half-life was assessed as previously described. Salmonella strains having plasmids with tetracycline-inducible hilD or its mutated sequence with a C-terminal 3XFLAG tag and a sipB::lacZ fusion (for invasion gene expression assessment) were grown overnight and then diluted 1:100 into LB buffered with 100 mM MOPS (pH 6.7) with appropriate antibiotics and fatty acids or control solvents. After 2 hours of growth, aliquots were collected to quantitate sipB::lacZ expression in a β-galactosidase assay. Individual cultures were then equilibrated to an OD600 of 1.0 to ensure equal density at the half-life assay beginning point. New protein production was halted by addition of a cocktail of antibiotics (rifampin, streptomycin and spectinomycin). These cultures were incubated at 37°C and aliquots were collected every 30 minutes for 2 hours. Samples were lysed in 5X sample buffer, boiled, and immunoblotted with an anti-FLAG antibody to monitor HilD.

HilD [3] = molecular target: T3, HilD (Salmonella typhimurium, UniProt P0CL08, Q290A); assay: HilD half-life (degradation) assay by western blot; assay type: cell-based; conditions: HilD Q290A-3XFLAG; 20 μM fatty acid
T3 construct: hilD with a C-terminal 3XFLAG tag was cloned into pWSK29 under control of the tetRA promoter; expressed in transfected cells; host or cells: Salmonella Typhimurium strain carrying pWSK29-PtetRA-hilD-3XFLAG (background with chromosomal hilD, hilC and rtsA null)
T3 sequence (P0CL08 1-309 Q290A): T1 sequence (P0CL08 1-309) with Q290A
Procedure: as §1

[4] = Salmonella expressing HilD K293A grown overnight with 20 μM fatty acid
[5] = Salmonella expressing HilD N44A grown overnight with 20 μM fatty acid
[6] = Salmonella expressing wild type HilD grown overnight with 20 μM fatty acid

Row | Compound | pKd (wild type HilD) | inhibition of invasion of HEp-2 cells [1, 4] | inhibition of invasion of HEp-2 cells [1, 5] | inhibition of invasion of HEp-2 cells [1, 6] | HilD degradation (HilD [2]) | HilD degradation (HilD [3]) | inhibition of invasion of HEp-2 cells ([1]; Salmonella expressing HilD Q290A grown overnight with 20 μM fatty acid)
1 | CCCCCCCCCCCCC/C=C\C(=O)O [c2-HDA, cis-2-hexadecenoic acid] | 5.46 | invaded HEp-2 cells despite the presence of 20 μM c2-HDA | unaffected | 8 fold | protected from degradation | degraded as rapidly as wild type HilD | 
2 | CCCCCCCCCCCCC/C=C/C(=O)O [t2-HDA, trans-2-hexadecenoic acid] | 5.01 | 2 fold | unaffected | 2 fold | escaped degradation | escaped degradation | had no effect
